Experiments:
[1] = target: T1, T. cruzi PMM and GDP-MP enzymes (Trypanosoma cruzi, UniProt Q4CMK4); experiment: standard configuration PMM-GDP-MP biochemical assay; conditions: for pIC50: library stock material, mean n=2; for pIC50 ± SD: repurchased material, n=3
Procedure: (§1) All enzyme and substrate solution dilutions were prepared in assay buffer comprising 25 mM Tris-HCl (pH 7.5), 150 mM NaCl, 4 mM MgCl2, 0.01% (vol/vol) Tween 20, and 1 mM dithiothreitol in ultrapure water. Biochemical assays were performed in a 50-μl final assay volume using clear 384-well assay microplates (Greiner, catalog no. 781101) at room temperature. Unless stated otherwise, all reagent concentrations are written as final biochemical assay concentrations, and DMSO or compounds were added to assay plates using Echo acoustic dispensers (Labcyte). Reagent addition for high-throughput screening assays was performed using an Xrd-384 liquid dispenser (FluidX, UK) and a BioFill Solo/Xrd-384 16 channel resin nozzle (2.00 to 200 μl) tubing cartridge (FluidX, catalog no. 34-1005-S). Biochemical reactions were terminated by addition of 50 μl of BIOMOL Green (Enzo Life Sciences, catalog no. BML-AK111-1000) reagent, after which absorbance was measured following a 30-min incubation at room temperature. Absorbance measurements were performed at 650 nm using a PHERAStar microplate reader (BMG Labtech, Germany), and the data are represented as relative absorbance units (RAU). Linear and nonlinear regression was performed using the SigmaPlot 12.5 software, unless stated otherwise.
Single-point diversity screening was performed using the standard configuration PMM-GDP-MP biochemical assay and microplates containing compounds in columns 1 to 22 from two diverse small-molecule compound sets covering traditional small-molecule chemical space (DDD, 9,257 compounds; molecular weights between 185.2 and 492.2) and more three-dimensional chemical space (GHCDL, 8,860 compounds; molecular weights between 190.24 and 449.3) at a final concentration of 10 μM (final DMSO concentration = 0.1% [vol/vol]) or a small polar set (16,845 primarily fragment-sized compounds with increased polarity; molecular weights between 88.1 and 476.0) at a final concentration of 300 μM (final DMSO concentration = 0.3% [vol/vol]). Columns 23 and 24 both contained DMSO (either 0.1 or 0.3% [vol/vol] at final assay concentration) and were utilized as “maximum effect” and “minimum effect” control populations, respectively. For screening purposes, 25 μl of a solution containing PMM and GDP-MP enzymes (6.25 and 3.13 nM, respectively) was added to columns 1 to 23, and 25 μl of buffer only was added to column 24. This was followed by the addition of 25 μl of a mixture containing inorganic pyrophosphatase (1 U/ml) and substrates/cofactors (150 μM GTP, 45 μM M-6-P, and 6 μM G-1,6,-BP). The assay plates were incubated at room temperature for 90 min. At the end of the incubation period, the biochemical reactions were terminated, and absorbance measurements were taken. Robust Z′ values were calculated for each assay microplate using the following equation: Robust Z’=1 –((3 ×(1.483 ×(RAU MAD Max)))+(3 ×(1.483 ×(RAU MAD Min))))/(median RAU Max− median RAU Min) where MAD is the median absolute deviation, Max are the maximum effect control samples, and Min are the minimum effect control samples.
RAU values were normalized to percent inhibition values relative to the maximum and minimum effect control populations, and compounds displaying percent inhibition values of ≥30% were selected as hits. Data were processed using IDBS ActivityBase 8.1.2.12 and Dotmatics Limited Vortex v2017.08.69598-59-s software.
Concentration-response assessment of hits using the PMM-GDP-MP assays was performed by adding 25 μl of a solution of PMM and GDP-MP enzymes (6.25 and 3.13 nM, respectively) to columns 1 to 11 and 13 to 23 of microplates containing various concentrations of compounds (10 final assay concentrations ranging from […] at 1 in 3 dilution increments in the presence of 1% [vol/vol] DMSO). Buffer only (25 μl) was added to columns 12 and 24. […]

[2] = target: T1, T. cruzi PMM and GDP-MP enzymes; experiment: high-substrate configuration PMM-GDP-MP biochemical assay; conditions: repurchased material, n=3
Procedure: as §1, with “otherwise. […]” for “otherwise.”

T. cruzi GDP-MP [3] = target: T2, T. cruzi GDP-MP (Trypanosoma cruzi, UniProt Q4CMK4); experiment: standard configuration GDP-MP biochemical assay
Procedure: as §1
Concentration-response assessment of hits using the PMM-GDP-MP assays was performed by adding 25 μl of a solution of PMM and GDP-MP enzymes (6.25 and 3.13 nM, respectively) to columns 1 to 11 and 13 to 23 of microplates containing various concentrations of compounds (10 final assay concentrations ranging from […] at 1 in 3 dilution increments in the presence of 1% [vol/vol] DMSO). Buffer only (25 μl) was added to columns 12 and 24. Columns 11 and 23 were utilized as “maximum effect” control populations (1% [vol/vol] DMSO with enzyme), and columns 12 and 24 were “minimum effect” control populations (1% [vol/vol] DMSO in the absence of enzyme). This was followed by the addition of 25 μl of a mixture containing inorganic pyrophosphatase (1 U/ml) and substrates/cofactors (150 μM GTP, 45 μM M-6-P, and 6 μM G-1,6-BP for the standard configuration assay and 150 μM GTP, 225 μM M-6-P, and 30 μM G-1,6-BP for the high-substrate configuration assay) to the entire assay plate. The standard configuration assay plates were incubated at room temperature for 90 min, and the high-substrate configuration assay plates were incubated for 80 min. Standard and high-substrate configuration GDP-MP assay compound concentration-response assessments were performed as described above by incubating GDP-MP enzyme (3.13 or 0.78 nM) in the presence of GTP (30 or 300 μM), M-1-P (15 or 150 μM), and inorganic pyrophosphatase (1 U/ml) for 50 min at room temperature. Pyrophosphatase counterscreen concentration-response assessments were performed by preincubating compounds with inorganic pyrophosphatase (1 U/ml) for 90 min at room temperature, followed by the addition of inorganic pyrophosphate (10 μM) and a secondary 5-min incubation at room temperature. At the end of the incubation periods, the biochemical reactions were terminated and absorbance measurements were taken. RAU values were normalized to % inhibition values relative to the maximum and minimum effect control populations. pIC50 values, defined as –log[IC50(M)], were calculated by fitting concentration-response data for each independent replicate separately to a four-parameter logistic model, as shown below, using either the IDBS ActivityBase 8.1.2.12 or SigmaPlot 12.5 software. Where appropriate, the top curve plateau parameter was constrained to a value of 100.
The four-parameter logistic model was as follows, where Min is the minimum asymptote and Max is the maximum asymptote: y=Min+Max – Min/1+(10^−logIC50/x)^Hill slope

T. cruzi GDP-MP [4] = target: T2, T. cruzi GDP-MP; experiment: high-substrate configuration GDP-MP biochemical assay; conditions: for IC50: GDP-MP, high-substrate configuration, repurchased material, n=3; for mode of inhibition of GDP-MP: from comparison of standard and high-substrate (10-fold) configuration GDP-MP assays
Procedure: as §1
Concentration-response assessment of hits using the PMM-GDP-MP assays was performed by adding 25 μl of a solution of PMM and GDP-MP enzymes (6.25 and 3.13 nM, respectively) to columns 1 to 11 and 13 to 23 of microplates containing various concentrations of compounds (10 final assay concentrations ranging from 990 to 1.92 μM at 1 in 3 dilution increments in the presence of 1% [vol/vol] DMSO). Buffer only (25 μl) was added to columns 12 and 24. Columns 11 and 23 were utilized as “maximum effect” control populations (1% [vol/vol] DMSO with enzyme), and columns 12 and 24 were “minimum effect” control populations (1% [vol/vol] DMSO in the absence of enzyme). This was followed by the addition of 25 μl of a mixture containing inorganic pyrophosphatase (1 U/ml) and substrates/cofactors (150 μM GTP, 45 μM M-6-P, and 6 μM G-1,6-BP for the standard configuration assay and 150 μM GTP, 225 μM M-6-P, and 30 μM G-1,6-BP for the high-substrate configuration assay) to the entire assay plate. […] At the end of the incubation periods, the biochemical reactions were terminated and absorbance measurements were taken. RAU values were normalized to % inhibition values relative to the maximum and minimum effect control populations. pIC50 values, defined as –log[IC50(M)], were calculated by fitting concentration-response data for each independent replicate separately to a four-parameter logistic model, as shown below, using either the IDBS ActivityBase 8.1.2.12 or SigmaPlot 12.5 software. […]

T. cruzi GDP-MP enzyme = experiment: Km determination with the GDP-MP assay; type: biochemical
Procedure: as §1
To calculate the Michaelis constant (Km) for the M-1-P substrate, 20-min time course reactions using a fixed concentration of GDP-MP enzyme (3.13 nM), a saturating concentration of GTP substrate (600 μM) mixed with inorganic pyrophosphatase (1 U/ml; Merck, catalogue no. I5907-1MG), and various concentrations of M-1-P substrate (150, 75, 37.5, 18.8, 9.38, 4.69, and 2.34 μM) were performed. The Km for the GTP substrate was acquired in a similar manner using a saturating concentration of M-1-P (150 μM) and various concentrations of GTP substrate (300, 150, 75, 37.5, 18.8, 9.38, and 4.69 μM). In both cases, background control samples were also included that lacked the presence of GDP-MP enzyme. At the end of the time courses, the biochemical reactions were terminated, and absorbance measurements were taken. […]

[5] = library stock material, n=1, read-out: pIC50 (converted)
[6] = repurchased material, n=3, read-out: pIC50 ± SD (converted)

T2 sequence (Q4CMK4 entry or part of it): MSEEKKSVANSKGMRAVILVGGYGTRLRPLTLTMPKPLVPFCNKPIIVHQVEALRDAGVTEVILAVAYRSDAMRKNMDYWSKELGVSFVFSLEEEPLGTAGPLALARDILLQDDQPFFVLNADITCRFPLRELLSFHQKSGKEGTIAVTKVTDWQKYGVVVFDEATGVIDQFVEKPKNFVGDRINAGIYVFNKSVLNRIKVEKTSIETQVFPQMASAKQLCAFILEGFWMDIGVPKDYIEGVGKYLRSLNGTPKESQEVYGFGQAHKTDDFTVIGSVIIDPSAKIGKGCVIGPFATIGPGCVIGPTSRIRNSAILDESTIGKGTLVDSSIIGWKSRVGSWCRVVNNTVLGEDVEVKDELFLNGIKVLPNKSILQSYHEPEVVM
T1 sequence (Q4CMK4 entry or part of it): as above
T1 sequence (Q4E4A3 entry or part of it, further chain): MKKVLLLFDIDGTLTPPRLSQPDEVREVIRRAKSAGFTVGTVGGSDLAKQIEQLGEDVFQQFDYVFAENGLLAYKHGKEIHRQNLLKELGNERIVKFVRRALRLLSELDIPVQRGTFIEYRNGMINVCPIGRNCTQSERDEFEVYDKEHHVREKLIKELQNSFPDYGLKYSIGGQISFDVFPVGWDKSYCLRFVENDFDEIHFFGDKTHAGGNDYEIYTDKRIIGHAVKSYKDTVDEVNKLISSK

SMILES | pIC50 [1] | pIC50 ± SD [1] | pIC50 ± SD [2] | IC50 (T. cruzi GDP-MP [3]; [5]) | IC50 (T. cruzi GDP-MP [3]; [6]) | IC50 (T. cruzi GDP-MP [4]) | mode of inhibition of GDP-MP (T. cruzi GDP-MP [4]) | GTP Km of T. cruzi GDP-MP, fold higher than reported for L. donovani (T. cruzi GDP-MP enzyme; vs L. donovani GDP-MP) | GTP Km of T. cruzi GDP-MP, fold higher than reported for L. major (T. cruzi GDP-MP enzyme; vs L. major GDP-MP) | GTP Km of T. cruzi GDP-MP, fold higher than reported for L. mexicana (T. cruzi GDP-MP enzyme; vs L. mexicana GDP-MP)
c1ccn2c(CNCCCN3CCC3)cnc2c1 [compound 2] | 3.6 (2) | 3.1 ± 0.2 (3) | 3.2 ± 0.2 (3) | > 1000 µM | > 1000 µM | 794 µM | uncompetitive inhibition |  |  | 
CC(=O)OCc1cc(-c2csc(N)n2)ccc1O [compound 3] | 3.5 (2) | 3.9 ± 0.2 (3) | 3.6 ± 0.1 (3) | 158 µM | 126 µM | 316 µM | competitive inhibition |  |  | 
N[C@H]1CCN(CCCOc2ccc(C(=O)O)cc2)C1 [compound 4] | 4.0 (2) |  |  | 158 µM |  |  |  |  |  | 
CC(C)C(C(=O)O)N1C(=O)C=CC1=O (stereo not drawn) [compound 1] | 4.9 (2) |  |  | 25.1 µM |  |  |  |  |  | 
Nc1nc2c(ncn2[C@@H]2O[C@H](COP(=O)(O)OP(=O)(O)OP(=O)(O)O)[C@@H](O)[C@H]2O)c(=O)[nH]1 [GTP] |  |  |  |  |  |  |  | 2.4 fold | 27 fold | 5.3 fold

From paper PMC6761512, “Trypanosoma cruzi Phosphomannomutase and Guanosine Diphosphate-Mannose Pyrophosphorylase Ligandability Assessment” (Antimicrobial Agents and Chemotherapy, 2019)
